According to US12383631B2, “Immune antigen specific IL-18 immunocytokines and uses thereof” (Bright Peak Therapeutics AG, priority 2022, dated 2025):

Tests used:
[1] = tested on: parental PD-1 negative KG-1 cells; test: IFN gamma secretion assay in parental PD-1 negative KG-1 cells (Example 11); format: cell-based, human; conditions: IFNγ secretion, 20-24 h
Experimental: The KG-1 cell line was used to generate a PD-1 expressing cell line and furthermore, to measure IFNγ release upon incubation with TL-18 variants and corresponding TL-18 immunocytokines.
IFNγ release was assessed in PD-1 positive (transduced) KG-1 cells, as well as in the parental PD-1 negative cells. 0.5×10^5 cells were seeded into a 96-well U-bottom plate in culture media (RPMI, 10% FBS, […]) and stimulated with IL-18 variants/ICs for 20-24 h. The test items were diluted to 100 nM in culture medium, followed by 7 10-fold serial dilutions. The lowest concentration assessed was […]. After incubation, IFNγ release was measured using the LEGENDplex custom human mix and match KIT (Biolegend LEGENDplex™ Human IFN-γ Capture Bead B5, 13×#740942, LEGENDplex™ P 1 Essential Immune Response Panel Detection Abs, #740931, LEGENDplex™ Buffer Set A #740368). To this end, cell culture supernatant was collected and diluted 1:1 with Assay Buffer. Fluorescence measurements were done with a Quanteon Flow Cytometer from Acea Biosciences. For analysis, MFI values (median fluorescence intensity) were exported and plotted against concentrations used. The EC50 values (half maximal effective concentration) were calculated based on a variable slope and four parameter analysis using GraphPad PRISM software version 9.

[2] = biological target: T1, human IL-18 binding protein isoform a (IL-18BPa) (Homo sapiens, UniProt O95998); test: Cellular IL-18 Binding protein resistance assay in NK-92 cells (Example 13); format: cell-based; conditions: NK92 cells, IL-18 analyte 1 nM final, IL-18BPa titrated, 1 ng/ml IL-12; read-out: IC50 IL-18BP-mediated inhibition of IFNγ secretion
T1 sequence (O95998 31-194): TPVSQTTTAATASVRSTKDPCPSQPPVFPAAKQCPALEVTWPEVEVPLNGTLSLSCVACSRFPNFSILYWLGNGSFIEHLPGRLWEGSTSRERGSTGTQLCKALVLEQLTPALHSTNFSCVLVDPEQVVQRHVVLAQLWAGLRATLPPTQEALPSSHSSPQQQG
Experimental: The NK cell line NK-92 derived from a patient with lymphoma (ATCC, Cat #CRL-2407) was cultured in aMEM medium supplemented with 20% FCS-Glutamax, 25 μM B-mercaptoEthanol, and 100 IU/ml of recombinant Human Interleukin-2 (TL-2). On the day of experiment, cells were harvested and washed with aMEM medium without IL-2. After counting, cells were seeded at 100 000 cells/well in a 384 well titer plate and incubated at 37° C./5% CO2. Sixteen 2-fold serial dilutions of Fc fused human IL-18 binding protein isoform a (IL-18BPa; R&D systems, Cat #119-BP) were prepared in aMEM medium-1 ng/ml IL-12 containing 2 nM of each IL-18 variants and were added to the NK-92 cells. Final IL-18 analytes concentration was 1 nM and final IL-18BPa concentrations ranged from to 566 nM down to 17 pM.
After 16-20 h incubation at 37° C./5% CO2, 5 μl of supernatant were carefully transferred to a 384 microwells OPTIplate (Perkin Elmer; Cat #6007270) and Interferon-gamma (IFNγ) levels measured using the Human IFNγ AlphaLISA Assay Kit (Perkin Elmer, Cat #AL217C). Briefly, 10 μl of 2.5× AlphaLISA Anti-IFNγ acceptor beads and biotinylated Antibody Anti-IFNγ mix were added to the 5 μl of NK-92 supernatants and incubated for 1 h at room temperature under shaking. Under subdued light, 2.5 μl of 2× streptavidin (SA) donor beads were pipetted in each well and incubated for 30 min at room temperature under shaking. AlphaLisa signal was then measured on an Enspire plate reader (Perkin Elmer) using 680 and 615 nm as excitation and emission wavelengths respectively. Half maximal inhibitory concentration (IC50) was calculated based on a variable slope, four parameter analysis using GraphPad PRISM software.

IC50 [2]: > 1000 nM
Substance: Composition B: immunocytokine: Atezolizumab/Tecentriq (anti-PD-L1) conjugated to IL-18 polypeptide SEQ ID NO: 30
EC50 [1]: 0.0016 nM
